Measurements published in patent publication US9573938B2 (priority 2012, dated 2017).
Values joined by “and” are separate entries in the source; they are usually repeats but may differ in a detail not shown here. Equal values may be shown once. Read-outs that look alike come from different tables or passages of the source.

Experiments:
[1] = target: T1, HIV-1 integrase (Human immunodeficiency virus type 1 group M subtype B, UniProt P12497); test: LEDGF independent integration (strand transfer) assay; format: biochemical; conditions: 500 nM integrase, 32P-labled recessed end 19-mer U5 DNA, 37° C. 1 hour
Description: (§1) The two metal binding motif of these compounds allows for potential cross reactivity with other drug targets with two metal containing active sites. Compounds were tested for LEDGF independent integration (strand transfer) and 3′ processing based on established protocols (Kessl et al.; J Biol Chem, 2012; 287:16801-16811).
(§2) The 3′-processing was assayed using blunt ended ^32P-labled 21-mer synthetic double stranded U5 DNA. The strand transfer assay used ^32P-labled recessed end 19-mer synthetic double stranded U5 DNA. 500 nM integrase was pre-incubated with compound for 30 minutes on ice in 50 mM MOPS (pH 7.2) buffer containing 2 mM β-mercaptoethanol, 50 mM NaCl and 10 mM MgCl2. 50 nM DNA substrate was added to the reaction and incubated at 37° C. for 1 hour when the reactions were stopped with 50 mM EDTA. The reaction products are subjected to denaturing polyacrylamide gel electrophoresis and visualized using a Storm 860 Phosphorimager (Amersham Biosciencs). The ICs50s of representative compounds of formula (I) as detected with a LEDGF independent integration assay or a 3′-processing assay are shown in the following table.

[2] = target: T1, HIV-1 integrase; test: 3′-processing assay; format: biochemical; conditions: 500 nM integrase, blunt ended 32P-labled 21-mer U5 DNA, 37° C. 1 hour; read-out: IC50 (μM) 3′-Process
Description: as §1, §2

[3] = target: 2009 H1N1 influenza A endonuclease (PAN domain) (Influenza A virus, UniProt C3W5S0); test: biochemical; set-up: species or system Influenza A (pandemic 2009 H1N1); conditions: fluorescence change over time at 37 degrees Celsius
[4] = IC50 (uM) using either 500 nM or 50 nM enzyme
[5] = 500 nM or 50 nM enzyme, read-out: IC50 (uM) using either 500 nM or 50 nM enzyme

SMILES	IC50 [1] [µM]	IC50 [2] [µM]	IC50 [3, 4]	melting point [°C]	IC50 [3, 5] [µM]
O=c1[nH]c(-c2ccc(O)c(O)c2)ccc1O [drawing 237]	6 ± 0.8	8.2 ± 2.5			
O=c1[nH]c(-c2ccc(-c3nnn[nH]3)cc2)ccc1O [drawing 241]	23.7 ± 2.7	12.6 ± 3.2			
N#Cc1ccc(-c2[nH]c(=O)c(O)cc2-c2ccc(F)cc2)cc1 [5-(4-Fluorophenyl)-6-(4-cyanophenyl)-3-hydroxypyridin-2(1H)-one]			0.054 µM	255 to 258	
O=c1[nH]c(-c2ccc(-c3nnn[nH]3)cc2)c(-c2ccc(F)cc2)cc1O [drawing 238]	11.7 ± 1.5	20.8 ± 5.8			
N#Cc1ccc(-c2cc(O)c(=O)[nH]c2-c2ccc(C#N)cc2)cc1 [5,6-bis(4-Cyanophenyl)-3-hydroxypyridin-2(1H)-one]			0.1 µM	159 to 162	
O=c1[nH]cc(-c2ccccc2)cc1O [5-Phenyl-3-hydroxypyridin-2(1H)-one]			> 10 µM	175 to 177	
O=C(O)c1ccc(-c2c[nH]c(=O)c(O)c2)cc1 [drawing 242]	50.7 ± 2.9	7.4 ± 1.6			
N#Cc1ccc(-c2cc(O)c(=O)[nH]c2-c2ccc(F)cc2)cc1 [5-(4-Cyanophenyl)-6-(4-fluorophenyl)-3-hydroxypyridin-2(1H)-one]			0.136 µM	255 to 257	
O=c1[nH]cc(-c2ccc(F)cc2)cc1O [drawing 239]	15.7 ± 0.9	11.6 ± 1.6			
O=C(O)c1cccc(-c2c[nH]c(=O)c(O)c2)c1 [drawing 240]	20.5 ± 1.3	22.2 ± 2.5			
O=c1[nH]c(-c2ccc(F)cc2)ncc1O [2-(4-Fluorophenyl)-5-hydroxypyrimidin-4(3H)-one]				252 to 254	0.58
N#Cc1ccc(-c2cc(O)c(=O)[nH]n2)cc1 [4-(5-Hydroxy-6-oxo-1,6-dihydropyridazin-3-yl)benzonitrile]				305 to 307	9.3
O=c1[nH]c(-c2ccccc2)c(-c2ccccc2)cc1O [5,6-bis(phenyl)-3-hydroxypyridin-2(1H)-one]			0.12 µM and 0.047 µM	249 to 255	
O=c1[nH]c(-c2ccc(-c3nnn[nH]3)cc2)c(-c2ccc(-c3nnn[nH]3)cc2)cc1O [5,6-bis[4-(1H-Tetrazol-5-yl)phenyl]-3-hydroxypyridin-2(1H)-one]			0.29 µM	180 to 182	
O=c1[nH]nc(-c2ccc(F)cc2)cc1O [6-(4-Fluorophenyl)-4-hydroxypyridazin-3(2H)-one]				281 to 283	6
